The values that follow come from ChEMBL document CHEMBL5370593, “Discovery and In Vitro Characterization of SPL028: Deuterated N,N-Dimethyltryptamine” (ACS Med Chem Lett, 2023).

Activity calls are given as the source filed them. The calls are words filed in the database; no cut-off is given here.

Common to all, as to type: cell-based
For assay [1], the target named is Alpha-2A adrenergic receptor (Homo sapiens) (UniProt P08913). The assay can be described thus: Displacement of [3H]-rauwolscine from human recombinant adrenergic alpha-2A receptor expressed in CHO-K1 cells at 10 uM incubated for 60 mins by spectrophotometric analysis relative to control. Background: In a radioligand displacement assay an active substance lowers the binding of a labelled ligand.
Chain of Alpha-2A adrenergic receptor (Homo sapiens) (P08913 whole entry): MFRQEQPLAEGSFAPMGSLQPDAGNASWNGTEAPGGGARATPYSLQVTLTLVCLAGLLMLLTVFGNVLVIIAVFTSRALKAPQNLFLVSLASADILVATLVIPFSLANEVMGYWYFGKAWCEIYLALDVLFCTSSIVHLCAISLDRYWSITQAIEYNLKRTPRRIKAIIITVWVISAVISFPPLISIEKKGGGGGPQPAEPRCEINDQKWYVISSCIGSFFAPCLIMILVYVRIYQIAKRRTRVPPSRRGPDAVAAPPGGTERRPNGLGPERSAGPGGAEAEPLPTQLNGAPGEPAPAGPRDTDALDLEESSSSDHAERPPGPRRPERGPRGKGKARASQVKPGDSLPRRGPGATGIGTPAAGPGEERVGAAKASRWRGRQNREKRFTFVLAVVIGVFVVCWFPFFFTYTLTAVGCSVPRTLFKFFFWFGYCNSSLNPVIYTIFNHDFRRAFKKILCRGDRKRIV

Assay [2] addresses Sigma non-opioid intracellular receptor 1 (Homo sapiens) (UniProt Q99720). As to the kind of experiment: Displacement of [3H] pentazocine from human sigma 1 receptor expressed in human Jurkat cells at <=10 uM incubated for 120 mins by spectrophotometric analysis.
Assay [3] has as its target 5-hydroxytryptamine receptor 6 (Homo sapiens, UniProt P50406). The assay can be described thus: Displacement of [3H] LSD from human recombinant 5-HT6 receptor expressed in human HeLa cells at 10 uM incubated for 120 mins by spectrophotometric analysis relative to control.
The target in assay [4] is Alpha-2C adrenergic receptor (Homo sapiens) (UniProt P18825). The assay can be described thus: Displacement of [3H]-rauwolscine from human recombinant adrenergic alpha-2c receptor expressed in CHO-K1 cells at 10 uM incubated for 60 mins by […] relative to control.
Chain of Alpha-2C adrenergic receptor (Homo sapiens) (P18825 whole entry): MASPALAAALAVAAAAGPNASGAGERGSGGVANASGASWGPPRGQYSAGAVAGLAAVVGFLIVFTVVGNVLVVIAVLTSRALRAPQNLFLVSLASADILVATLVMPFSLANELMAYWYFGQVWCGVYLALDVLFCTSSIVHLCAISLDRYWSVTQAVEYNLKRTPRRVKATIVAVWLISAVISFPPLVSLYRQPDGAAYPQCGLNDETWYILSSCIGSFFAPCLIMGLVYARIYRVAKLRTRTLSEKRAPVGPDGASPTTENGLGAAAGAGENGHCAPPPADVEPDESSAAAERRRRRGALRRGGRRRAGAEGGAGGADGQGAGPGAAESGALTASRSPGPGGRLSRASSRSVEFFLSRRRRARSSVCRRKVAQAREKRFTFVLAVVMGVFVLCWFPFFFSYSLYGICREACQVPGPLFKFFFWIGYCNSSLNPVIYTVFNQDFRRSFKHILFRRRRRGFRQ
In assay [5] the target is 5-hydroxytryptamine receptor 5A (Homo sapiens, UniProt P47898). As to the kind of experiment: Displacement of [3H] LSD from human recombinant 5-HT5A receptor expressed in CHO-K1 cells at 10 uM incubated for 60 mins by spectrophotometric analysis relative to control.
Chain of 5-hydroxytryptamine receptor 5A (P47898 whole entry): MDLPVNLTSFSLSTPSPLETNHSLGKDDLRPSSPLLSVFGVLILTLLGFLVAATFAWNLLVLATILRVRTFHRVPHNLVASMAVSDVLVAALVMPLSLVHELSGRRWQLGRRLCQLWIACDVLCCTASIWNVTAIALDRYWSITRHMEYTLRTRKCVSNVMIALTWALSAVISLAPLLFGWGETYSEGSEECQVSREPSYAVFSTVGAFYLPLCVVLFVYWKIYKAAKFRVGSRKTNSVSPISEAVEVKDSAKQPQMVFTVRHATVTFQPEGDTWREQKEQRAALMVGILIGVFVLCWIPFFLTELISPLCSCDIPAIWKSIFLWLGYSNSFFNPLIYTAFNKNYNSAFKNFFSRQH
The target of assay [6] is Alpha-1B adrenergic receptor (Homo sapiens) (UniProt P35368). The assay can be described thus: Displacement of [3H] prazosin from human recombinant adrenergic alpha-1b receptor expressed in […] cells at 10 uM incubated for 60 mins by spectrophotometric analysis relative to control.
Chain of Alpha-1B adrenergic receptor (Homo sapiens) (P35368 whole entry): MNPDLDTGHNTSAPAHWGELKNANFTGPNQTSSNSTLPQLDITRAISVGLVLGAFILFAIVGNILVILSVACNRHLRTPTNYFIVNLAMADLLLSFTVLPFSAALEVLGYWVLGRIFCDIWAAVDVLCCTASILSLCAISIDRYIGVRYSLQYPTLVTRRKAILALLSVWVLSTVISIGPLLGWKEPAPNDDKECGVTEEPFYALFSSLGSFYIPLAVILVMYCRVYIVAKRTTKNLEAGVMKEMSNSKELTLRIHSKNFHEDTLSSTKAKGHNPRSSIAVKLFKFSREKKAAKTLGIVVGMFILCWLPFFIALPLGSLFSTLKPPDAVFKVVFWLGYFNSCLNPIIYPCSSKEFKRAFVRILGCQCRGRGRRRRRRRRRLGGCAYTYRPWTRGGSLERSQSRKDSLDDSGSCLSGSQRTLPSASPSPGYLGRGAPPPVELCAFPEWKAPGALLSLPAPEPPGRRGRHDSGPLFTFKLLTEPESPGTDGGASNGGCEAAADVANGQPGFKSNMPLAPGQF
Assay [7] deals with Histamine H1 receptor (Homo sapiens) (UniProt P35367). The assay can be described thus: Displacement of [3H] pyrilamine from human recombinant histamine H1 receptor expressed in CHO-K1 cells at 10 uM incubated for 180 mins by spectrophotometric analysis relative to control.
Chain of Histamine H1 receptor (Homo sapiens) (P35367 whole entry): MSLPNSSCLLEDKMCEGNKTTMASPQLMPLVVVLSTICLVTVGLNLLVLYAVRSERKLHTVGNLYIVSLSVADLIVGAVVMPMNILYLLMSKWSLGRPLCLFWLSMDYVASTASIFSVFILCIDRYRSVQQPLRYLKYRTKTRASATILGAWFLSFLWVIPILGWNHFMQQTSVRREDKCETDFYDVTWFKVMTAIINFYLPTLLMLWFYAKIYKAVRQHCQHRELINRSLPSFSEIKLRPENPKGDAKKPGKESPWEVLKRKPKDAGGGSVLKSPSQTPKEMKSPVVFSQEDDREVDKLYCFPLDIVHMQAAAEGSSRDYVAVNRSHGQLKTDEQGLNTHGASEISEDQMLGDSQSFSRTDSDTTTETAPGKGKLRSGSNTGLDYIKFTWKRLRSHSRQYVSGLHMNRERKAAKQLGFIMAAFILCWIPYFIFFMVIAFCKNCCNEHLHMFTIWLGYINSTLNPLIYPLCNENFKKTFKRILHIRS
For assay [8], the target named is 5-hydroxytryptamine receptor 2B (Homo sapiens) (UniProt P41595). The assay can be described thus: Displacement of [3H] LSD from human recombinant 5-HT2B receptor expressed in CHO-K1 cells at 10 uM incubated for 60 mins by spectrophotometric analysis relative to control.
Chain of 5-hydroxytryptamine receptor 2B (Homo sapiens) (P41595 whole entry): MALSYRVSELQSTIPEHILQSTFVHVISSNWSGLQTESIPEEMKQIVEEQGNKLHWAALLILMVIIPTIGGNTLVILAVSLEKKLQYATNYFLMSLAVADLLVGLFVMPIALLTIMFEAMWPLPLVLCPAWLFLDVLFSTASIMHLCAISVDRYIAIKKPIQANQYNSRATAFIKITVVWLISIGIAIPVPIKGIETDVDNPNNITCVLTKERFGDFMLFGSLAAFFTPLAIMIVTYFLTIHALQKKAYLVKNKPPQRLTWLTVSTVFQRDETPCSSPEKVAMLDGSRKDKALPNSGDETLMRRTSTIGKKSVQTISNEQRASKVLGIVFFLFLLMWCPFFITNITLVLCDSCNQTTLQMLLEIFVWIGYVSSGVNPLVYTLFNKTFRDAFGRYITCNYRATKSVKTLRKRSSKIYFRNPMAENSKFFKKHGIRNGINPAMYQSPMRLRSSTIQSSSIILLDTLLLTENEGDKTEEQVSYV
The target of assay [9] is Alpha-1A adrenergic receptor (Homo sapiens) (UniProt P35348). The assay can be described thus: Displacement of [3H] prazosin from human recombinant adrenergic alpha-1a receptor expressed in […] cells at 10 uM incubated for 60 mins by spectrophotometric analysis relative to control.
Chain of Alpha-1A adrenergic receptor (Homo sapiens) (P35348 whole entry): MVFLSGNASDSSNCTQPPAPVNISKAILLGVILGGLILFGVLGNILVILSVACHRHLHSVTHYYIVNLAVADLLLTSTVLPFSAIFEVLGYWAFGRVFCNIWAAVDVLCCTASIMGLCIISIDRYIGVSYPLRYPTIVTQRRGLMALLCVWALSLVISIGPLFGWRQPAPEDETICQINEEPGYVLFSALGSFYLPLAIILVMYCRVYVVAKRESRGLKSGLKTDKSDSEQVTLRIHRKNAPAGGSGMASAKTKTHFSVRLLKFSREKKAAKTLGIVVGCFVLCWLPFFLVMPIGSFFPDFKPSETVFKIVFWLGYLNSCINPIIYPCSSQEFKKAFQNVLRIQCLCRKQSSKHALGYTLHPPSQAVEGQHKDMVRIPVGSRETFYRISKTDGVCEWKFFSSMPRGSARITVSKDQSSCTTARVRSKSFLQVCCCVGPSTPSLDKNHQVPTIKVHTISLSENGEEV

Chain of Sigma non-opioid intracellular receptor 1 (Homo sapiens) (Q99720 whole entry): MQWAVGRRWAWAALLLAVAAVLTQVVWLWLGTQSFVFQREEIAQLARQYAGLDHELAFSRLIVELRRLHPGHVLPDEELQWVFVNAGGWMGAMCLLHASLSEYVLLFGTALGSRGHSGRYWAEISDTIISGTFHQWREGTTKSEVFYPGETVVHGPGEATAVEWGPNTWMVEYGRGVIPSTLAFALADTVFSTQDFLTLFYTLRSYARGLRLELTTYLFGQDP
Chain of 5-hydroxytryptamine receptor 6 (P50406 whole entry): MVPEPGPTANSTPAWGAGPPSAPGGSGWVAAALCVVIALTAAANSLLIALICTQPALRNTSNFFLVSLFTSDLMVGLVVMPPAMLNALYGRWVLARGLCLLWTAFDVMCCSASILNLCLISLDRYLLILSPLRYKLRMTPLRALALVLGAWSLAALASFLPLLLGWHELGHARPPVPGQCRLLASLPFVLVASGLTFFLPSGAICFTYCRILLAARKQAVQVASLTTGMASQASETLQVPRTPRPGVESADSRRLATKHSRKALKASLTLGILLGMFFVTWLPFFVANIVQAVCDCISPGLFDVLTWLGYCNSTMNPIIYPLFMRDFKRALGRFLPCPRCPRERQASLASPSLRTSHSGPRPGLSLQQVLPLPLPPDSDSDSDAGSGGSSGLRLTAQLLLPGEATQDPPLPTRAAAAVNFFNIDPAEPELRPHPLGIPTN

The inhibition is the relative decrease from the control value, in per cent. Take `CN(C)CCc1c[nH]c2ccccc12.O=C(O)/C=C/C(=O)O`: the inhibition in [1] is 67.1%; in [1] (tested as the 2H-labelled form), 69.1%; in [3], 86.1%; in [3] (tested as the 2H-labelled form), 86.2%; in assay [4], 58.4%; in [4] (tested as the 2H-labelled form), 57.6%. Also, the inhibition was 72.7% in assay [5]; 70.2% in [5] (tested as the 2H-labelled form); 85.8% in [6]; 87.2% in assay [6] (tested as the 2H-labelled form); 88.8% in assay [7]; 91.4% in assay [7] (tested as the 2H-labelled form). Also, the inhibition in assay [8] stood at 95.5%; in [8] (tested as the 2H-labelled form) it was 96.5%; in assay [9], 85.1%; in assay [9] (tested as the 2H-labelled form) it was 85.1%. In addition, the inhibition entry in assay [2] and in [2] (tested as the 2H-labelled form) was “inactive” throughout.
